{
  "source": "patent US8198033B2",
  "about": "“Methods and materials for observing apoptosis” (Genentech, Inc., priority 2006, dated 2012)",
  "type_in_all_cases": "cell-based, human",
  "key": {"[1]": {"tested_on": "caspase-3/7", "assay": "Caspase-3/7 activity assay (Apo-One)", "conditions": "after induction of dynG273D, 38° C. compared to 30° C.", "experimental": "The caspase-3/7 assay was performed using Apo-One Homogenous Caspase-3/7 Assay (Promega). […] Lysates were incubated at room temperature for 1 hour before reading in a fluorometer at 485/530 […]."}, "[2]": {"tested_on": "BJAB and Colo205 cells", "assay": "Transferrin (Tf) endocytosis rate by flow cytometry", "experimental": "The cells were then equilibrated on ice for 30 min with Alexa-647-conjugated Tf (^647TF) and uptake at 37° C. was measured by flow cytometry. Each endocytosis rate was derived from the slope of the initial linear phase of a 4 min uptake kinetics plot (a, inset). […] Rates were normalized to the DMSO treated sample (±SEM).\nSedimented cells were resuspended in cold 2% paraformaldehyde/PBS and mean fluorescence intensity of 10,000 cells quantified with a Coulter Epics Elite-ESP flow cytometer (Hialeah, Fla.). Endocytic rates were determined from linear slopes of steady-state internal/surface plots (see, e.g., Wiley, H. S. et. al, J Biol Chem 257, 4222-9 (1982)). For temperature-shift experiments, ice binding incubations were avoided. Instead, cells were preconditioned for 20 min and maintained at 30° C. or 38° C. in binding medium, incubated an additional 0 (control) or 20 min with ^647Tf, chilled on ice for 30 min, and processed for flow cytometry to determine internal/surface ^647Tf ratios."}, "[3]": {"tested_on": "DISC", "assay": "DISC immunoprecipitation", "experimental": "(a) BJAB cells were equilibrated with ^647Tf on ice, incubated for the indicated uptake interval at 37° C. or on ice, then fluorescence quantified by flow cytometry. […] DISC-associated FADD and caspase-8 were visualized by immunoblot. (c, d) Dyn^G273D-transduced BJAB cells were treated with buffer (No Dox) or doxycyline (Dox) and shifted to 38° C. for 20 min to inactivate dynamin. The cells were treated with crosslinked Apo2L/TRAIL for the indicated amounts of time and the DISC was immunoprecipitated. DISC-associated FADD and caspase-8 were visualized by immunoblot (c) or DISC-associated caspase-8 activity was measured as described previously (Sharp et al. J Biol Chem 280, 19401-409, 2005).\nBJAB cells (1×10^7 per time point) were treated with Flag-Apo2L/TRAIL cross-linked by anti-FLAG M2 Abs, collected, lysed, immunoprecipitated and the DISC was analyzed as described (see, e.g., Kischkel, F. C. et al., Immunity 12, 611-20 (2000))."}, "[4]": {"tested_on": "DR5", "assay": "Temperature-shift DR5 uptake in DynG273D-transduced BJAB cells", "conditions": "doxycyclin-stimulated dynG273D expression, 20 min", "experimental": "(a-d) Dyn^G273D-transduced HeLa-M cells were puromycin-selected, doxycycline-induced, pre-incubated for 20 min at the indicated temperature, then incubated another 20 min in the presence of Alexa-488 conjugated Tf (^488Tf). Cells were then processed for immunofluorescence microscopy using a dynamin-1 specific antibody. (e, f) Nontransduced (parental) or clonal Dyn1^G273D-transduced BJAB cells with (+dox) or without (no dox) doxycycline induction were assayed for ^488Tf or ^6475C7 uptake over a 20 min period at 30° C. (white bars) or 38° C. (black bars) by flow cytometry and means plotted (±SD).\nCells were acid stripped or not and quantified by flow cytometry."}, "[5]": {"tested_on": "DynG273D-transduced BJAB cells", "assay": "Apoptosis assay (sub-diploid DNA, DNA fragmentation)", "conditions": "induction of dynG273D and temperature-shift to 38° C.", "experimental": "Cells were stained with propidium iodide after ethanol fixation and RNase treatment and the amount of sub-diploid DNA was analyzed by flow cytometry as previously described, using Expo32 software with an Epics XL.MCL cytometer (Coulter Beckman), (see, e.g., Nicholson, D. W., Cell Death Differ 6, 1028-42 (1999))."}, "[6]": {"tested_on": "AP2α, AP1/2β, clathrin heavy chain (CHC), dynamin", "assay": "Immunoblot for cleavage of clathrin-dependent endocytosis machinery and caspases in cell lysates", "experimental": "(b) Colo205 cells were treated as in (a) and analyzed by immunoblot for processing of specific components of various types of clathrin-associated endocytic trafficking.\nOpen arrows indicate cleavage products and solid arrows indicate full-length proteins.\n(c) BJAB cells were treated with crosslinked Apo2L/TRAIL and processing of dynamin was determined by immunoblot.\nThe cells were analyzed by immunoblot for processing of caspase-8, caspase-9, caspase-3, and AP2α.\nHuman colorectal adenocarcinoma Colo205 cells human B cell lymphoma BJAB cells and human T cell carcinoma Jurkat wild type cells (A3 clone), FADD-deficient (E1) and caspase-8-deficient (I9.3) were cultured in RPMI 1640+10% fetal bovine serum (FBS)+2 mM glutamine+1000 U/ml Penicillin-Streptomycin (Life Technologies). Human cervical carcinoma HeLa-M cells human breast adenocarcinoma MCF7 and human colorectal adenocarcinomas HCT15, HCT8, SW948, Colo320, human fibrosarcoma HT180 (ATCC), HCT116 Bax(−/−), HCT116 Bax(+/−) were grown in 50:50 Dulbecco's modified Eagle's and FK12 medium+10% FBS+1000 U/ml Penicillin-Streptomycin. cDNA clones encoding temperature-sensitive dynamins were the G273D mutant and dominant negative K44A mutant dynamin-1 (Dyn^G273D and Dyn^K44A, respectively). Dyn^G273D was expressed from pHUSH-ProEx, a single retroviral plasmid tetracycline-inducible expression system constructed at Genentech. The cDNA was first cloned into a shuttle plasmid containing a CMV enhancer-promoter sequence with two copies of the tetracycline operator TetO2, then transferred via in vitro phage lamda-based recombination, or Gateway® technology (Invitrogen, Carlsbad), to a Moloney murine leukemia virus backbone vector in which the wild type Tet repressor is driven by a separate β-actin promoter and followed by an internal ribosomal entry sequence and puromycin selection cassette. Dyn^K44A was expressed from the 2-vector tetracycline-inducible retroviral expression system, pRevTet-On/pRev-Tre (Clontech), using serial infections. Retroviral vectors were transfected into Phoenix amphotropic Moloney Murine Leukemia Virus packaging cells using Lipofectamine 2000 […]. Retroviral particles were harvested and used in HeLa-M and BJAB cell infections as described previously (Simpson et al. J Cell Biol 137, 835-45, 1997). Dyn^G273 infected cells were puromycin selected (2-3 μg/ml) for 1-2 weeks and cloned either by manually picking individual HeLa-M colonies or by FACS sorting of resistant BJAB cells (gated for exclusion of propidium iodide) and single cell seeding in 96-well cell culture plates using an EPICS ELITE-ESP equipped with an Autoclone device (Coulter, Hialeah, Fla.). Cell clones were screened for uniformity of doxycycline inducible dynamin-1 expression by immunofluorescence microscopy. Dyn^K44A-infected cells were hygromycin B (400 μg/ml) and G418 (1 mg/ml) selected for 1-2 weeks. Induction with doxycycline (1 μg/ml) was performed at 32° C. for 72 hr as described previously (Damke et al. J Cell Biol 131, 69-80 1995). Vincristine sulfate (#T-117), Adriamycin.HCL (GR-319) were purchased from Biomol, tetracycline-free FBS from Hyclone, Puromycin from Clontech and Doxycyclin from Sigma. zVAD-fmk (asN-benzyloxycarbonyl-Val-Ala-Asp-fluoromethylketone) was obtained from MD Biosciences (#FK-009). […]"}, "[7]": {"conditions": "MCF7 cells, deficient in caspase-3"}},
  "data": [
    {"substance": "Apo2L/TRAIL: Human recombinant soluble Apo2L/TRAIL in non-tagged (trimeric) or Flag-tagged, antibody-crosslinked versions; SEQ ID NO: 7", "values": [
      {"measurement": "Ligand-stimulated caspase-3/7 enzymatic activity", "setting": "[1]", "value": "substantial increase"},
      {"measurement": "Inhibition of the rate of Tf endocytosis", "setting": "[2]; BJAB and Colo205 cells, pretreatment at 37° C.", "value": "75-85%"},
      {"measurement": "Reduction of Tf endocytosis rate", "setting": "[2]; Colo205 cells, extended exposure for 2 hr at 37° C.", "value": 5, "unit": "fold"},
      {"measurement": "DISC assembly with Tf endocytosis blocked", "setting": "[3]; BJAB cells chilled on ice", "value": "still recruited FADD and caspase-8 to their respective receptors and processed caspase-8"},
      {"measurement": "DISC formation, caspase-8 processing and activity despite endocytosis inhibition", "setting": "[3]; dynG273D BJAB cells, 38° C.", "value": "comparable DISC formation, caspase-8 processing, and caspase-8 activity in the DISC"},
      {"measurement": "Ligand-induced DR5 uptake", "setting": "[4]; 30° C.", "value": "~25", "unit": "%"},
      {"measurement": "Ligand-induced DR5 uptake", "setting": "[4]; 38° C.", "value": "~10", "unit": "%"},
      {"measurement": "Apoptosis (cells with fragmented DNA)", "setting": "[5]", "value": "augmented apoptosis"},
      {"measurement": "Start of depletion of full-length dynamin after stimulation", "setting": "[6]; BJAB cells, crosslinked Apo2L/TRAIL", "value": "≤ 1", "unit": "h"},
      {"measurement": "Cleavage of AP2α isoform C", "setting": "[6]; BJAB, Colo205, LS1034 and SW948 cells", "value": "did not induce cleavage of isoform C"},
      {"measurement": "Caspase processing", "setting": "[6]; Bax+/- HCT116 cells", "value": "stimulated processing of both caspase-8 and -3"},
      {"measurement": "Caspase processing", "setting": "[6]; Bax-/- HCT116 cells", "value": "only of caspase-8"},
      {"measurement": "Proteolysis of structurally analogous adaptors (AP1α, AP3β and δ, AP4ε, β-COP, Sec23)", "setting": "[6]; Colo205 cells, similar timeframe", "value": "did not induce proteolysis"},
      {"measurement": "CHC cleavage", "setting": "[6]; [7]", "value": "did not stimulate CHC cleavage"},
      {"measurement": "Processing of caspase-8 and AP2α", "setting": "[6]; [7]", "value": "relatively weak and slow processing of caspase-8 and AP2α"},
      {"measurement": "Processing of AP2α and CHC", "setting": "[6]; caspase-8-deficient or FADD-deficient mutant Jurkat cell lines", "value": "neither ligand stimulated processing of these targets"},
      {"measurement": "Processing of caspase-8 and -3 and cleavage of AP2α, AP1/2β and CHC", "setting": "[6]; several cancer cell lines, susceptible Colo205, BJAB, HeLa-M, not resistant HCT8", "value": "cleavage of AP2α, AP1/2β, and clathrin heavy-chain (CHC)"},
      {"measurement": "Time within which caspase processing and AP2α, AP1/2β, CHC cleavage occurred", "setting": "[6]; susceptible cell lines Colo205, BJAB, HeLa-M", "value": "≤ 2", "unit": "h"},
      {"measurement": "Cleavage of AP2α and CHC", "setting": "[6]; wt Jurkat T cells", "value": "induced cleavage of AP2α and CHC"}
    ]}
  ]
}
